# Read-outs that look alike come from different tables or passages of the source.
# Assays:
# Format in all cases: cell-based
# [1] = system: NCI-H1975 (EGFR-L858R-T790M) cells; assay: Inhibitory activity on proliferation of NCI-H1975 (EGFR-L858R-T790M) cells (CTG, 72 h); conditions: Homo sapiens
# How it was run: (§1)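 Cells plated at 1000/well (NCI-H1975, RPMI1640+10% FBS) or 3000/well (A431, DMEM+10% FBS), dosed next day with compounds (0.1% DMSO final) for 72 h at 37 °C, 5% CO2. Viability by CTG luminescence, normalised to vehicle control; IC50 from nonlinear-regression dose-survival curves.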
# A431 (EGFR-WT) cells = assay: Inhibitory activity on proliferation of A431 (EGFR-WT) cells (CTG, 72 h); conditions: Homo sapiens, A-431
# How it was run: as §1
# [2] = target: T1, EGFR protein in NCI-H1975 EGFR-L858R-T790M-C797S cells (Homo sapiens, UniProt P00533, C797S/L858R/T790M); assay: Degradation activity on EGFR protein in NCI-H1975 EGFR-L858R-T790M-C797S cells, Method II (western blot, 48 h); conditions: 48 h incubation, EGFR protein relative to DMSO control
# T1 construct: expressed in transfected cells; host or cells: NCI-H1975 EGFR-L858R-T790M-C797S (kept under hygromycin selection)
# Method: Protein sample preparation: NCI-H1975 EGFR-L858R-T790M-C797S cells were cultured in an incubator at 37° C. with 5% CO2, and the culture medium was RPMI1640+10% FBS+100 μg/mL hygromycin. The cells in the logarithmic phase were collected, and the cell suspension was adjusted to an appropriate concentration with a hygromycin-free culture medium, plated on a 6-well plate at a density of 350000 cells/well and a volume of 2 mL, and cultured overnight in an incubator at 37° C. with 5% CO2. The next day, the compounds at different concentrations were added. DMSO control wells were provided, wherein the concentration of DMSO in all wells was 0.1%. The 6-well plate was cultured in an incubator at 37° C. with 5% CO2 for 48 h, and then 30 μL of RIPA lysates (Beyotime, Cat. P0013B) containing protease inhibitors (Beyotime, Cat. P0013B) were added. The mixtures were lysed on ice for 30 min. Centrifugation was carried out at 13000 rpm/min at 4° C. for 20 minutes to collect protein supernatant samples, and protein quantification was performed by the BCA method. Western Blot detection samples were prepared.
# Western blot detection: 20 μg of protein samples were added to each well, subjected to polyacrylamide gel electrophoresis and transferred to a membrane, and then diluted anti-EGFR (CST, Cat. 4267S) and […] (Kangchen, Cat. KC-5G4) antibodies were added and incubated overnight at 4° C. After washing the membrane, diluted goat anti-rabbit (Licor, Cat. 926-32211) and goat anti-mouse (Licor, Cat. 926-68070) antibodies were added and incubated in the dark for 45 min. Scanning and detection at wavelengths of 700 nm and 800 nm were performed with a far-infrared imaging system (Odyssey).
# According to formula (3), the expression level of EGFR protein in the cells relative to the DMSO control group was calculated after incubation with different concentrations of compounds. wherein EGFRcompound was the fluorescence value of EGFR protein after incubation with compounds, and EGFRvehicle was the fluorescence value of EGFR protein in the DMSO control group. Using the Origin 9.2 software, the drug concentration DC50 values when the expression level of EGFR protein was 50% relative to the DMSO control group were calculated.
# [3] = read-out: IC50 (value in brackets)
# T1 sequence (P00533 25-1210 T790M/C797S/L858R): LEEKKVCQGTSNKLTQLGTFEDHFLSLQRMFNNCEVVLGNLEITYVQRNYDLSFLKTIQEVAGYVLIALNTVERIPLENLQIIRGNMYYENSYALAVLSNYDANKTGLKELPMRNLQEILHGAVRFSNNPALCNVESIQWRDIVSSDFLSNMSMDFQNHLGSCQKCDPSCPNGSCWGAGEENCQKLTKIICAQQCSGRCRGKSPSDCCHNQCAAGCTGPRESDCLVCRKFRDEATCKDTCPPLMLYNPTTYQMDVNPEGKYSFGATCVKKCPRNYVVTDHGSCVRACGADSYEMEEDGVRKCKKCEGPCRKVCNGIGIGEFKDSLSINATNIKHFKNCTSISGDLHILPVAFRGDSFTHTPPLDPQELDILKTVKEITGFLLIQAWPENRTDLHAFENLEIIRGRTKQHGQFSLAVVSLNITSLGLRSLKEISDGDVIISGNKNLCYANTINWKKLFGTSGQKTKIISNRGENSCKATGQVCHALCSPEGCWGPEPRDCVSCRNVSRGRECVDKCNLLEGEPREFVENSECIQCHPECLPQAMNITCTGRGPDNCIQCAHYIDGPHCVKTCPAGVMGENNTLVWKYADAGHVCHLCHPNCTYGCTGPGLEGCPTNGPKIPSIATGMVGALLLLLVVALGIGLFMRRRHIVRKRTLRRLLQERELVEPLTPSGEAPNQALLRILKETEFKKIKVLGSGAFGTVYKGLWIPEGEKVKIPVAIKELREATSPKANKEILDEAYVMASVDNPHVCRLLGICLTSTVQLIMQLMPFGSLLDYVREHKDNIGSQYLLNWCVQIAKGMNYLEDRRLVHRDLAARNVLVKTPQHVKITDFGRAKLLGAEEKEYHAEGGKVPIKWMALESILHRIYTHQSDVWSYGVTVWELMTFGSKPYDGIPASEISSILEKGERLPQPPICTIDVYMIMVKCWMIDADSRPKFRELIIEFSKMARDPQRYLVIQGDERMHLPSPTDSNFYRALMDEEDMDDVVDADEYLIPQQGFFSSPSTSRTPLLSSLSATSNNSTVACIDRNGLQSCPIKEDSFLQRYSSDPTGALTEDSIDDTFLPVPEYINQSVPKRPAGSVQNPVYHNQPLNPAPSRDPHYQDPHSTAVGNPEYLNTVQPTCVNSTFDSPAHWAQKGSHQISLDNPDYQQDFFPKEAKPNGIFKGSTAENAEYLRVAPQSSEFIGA
SMILES,IC50 ([1]; read-out: IC50 (class symbol)),"IC50 [1, 3]",IC50 (A431 (EGFR-WT) cells),DC50 [2]
"COc1cc(N2CCC(CN3CCN(c4ccc5c(c4)C(=O)N(C4CCC(=O)NC4=O)C5=O)CC3)CC2)c(-c2cnn(C)c2)cc1Nc1ncc(Cl)c(Nc2ccc(C3CC3)cc2P(C)(C)=O)n1 (centres unmarked) [Compound 107, 5-(4-((1-(4-((5-chloro-4-((4-cyclopropyl-2-(dimethylphosphoryl)phenyl)amino)pyrimidin-2-yl)amino)-5-methoxy-2-(1-methyl-1H-pyrazol-4-yl)phenyl)piperidin-4-yl)methyl)piperazin-1-yl)-2-(2,6-dioxopiperidin-3-yl)isoindoline-1,3-dione]",< 100 nM,56 nM,≥ 10000 nM,< 100 nM
"COc1cc(N2CCC(CN3CCN(c4ccc5c(c4)C(=O)N(C4CCC(=O)NC4=O)C5=O)CC3)CC2)c(-c2cnn(C)c2)cc1Nc1ncc(Br)c(Nc2ccc(C3CC3)cc2P(C)(C)=O)n1 (centres unmarked) [Compound 106, 5-(4-((1-(4-((5-bromo-4-((4-cyclopropyl-2-(dimethylphosphoryl)phenyl)amino)pyrimidin-2-yl)amino)-5-methoxy-2-(1-methyl-1H-pyrazol-4-yl)phenyl)piperidin-4-yl)methyl)piperazin-1-yl)-2-(2,6-dioxopiperidin-3-yl)isoindoline-1,3-dione]",< 100 nM,54 nM,≥ 10000 nM,< 100 nM

# From patent publication US20240269298A1, “PHOSPHONYL DERIVATIVE, AND COMPOSITION AND PHARMACEUTICAL APPLICATION THEREOF” (XIZANG HAISCO PHARMACEUTICAL CO., LTD., priority 2021, published 2024)
